Data taken from patent publication US10829778B2, “Plants having increased tolerance to herbicides” (BASF SE, priority 2013, dated 2020).

Legend:
[1] = biological target: T1, Arabidopsis HPPD (SEQ ID NO:53) (Arabidopsis thaliana, UniProt P93836); experiment: HPPD activity assay (HGA by HPLC), wildtype enzyme; format: biochemical
T1 construct: His6 (N); made in house; host or cells: E. coli BL21 (DE3)
T1 sequence (P93836 1-445): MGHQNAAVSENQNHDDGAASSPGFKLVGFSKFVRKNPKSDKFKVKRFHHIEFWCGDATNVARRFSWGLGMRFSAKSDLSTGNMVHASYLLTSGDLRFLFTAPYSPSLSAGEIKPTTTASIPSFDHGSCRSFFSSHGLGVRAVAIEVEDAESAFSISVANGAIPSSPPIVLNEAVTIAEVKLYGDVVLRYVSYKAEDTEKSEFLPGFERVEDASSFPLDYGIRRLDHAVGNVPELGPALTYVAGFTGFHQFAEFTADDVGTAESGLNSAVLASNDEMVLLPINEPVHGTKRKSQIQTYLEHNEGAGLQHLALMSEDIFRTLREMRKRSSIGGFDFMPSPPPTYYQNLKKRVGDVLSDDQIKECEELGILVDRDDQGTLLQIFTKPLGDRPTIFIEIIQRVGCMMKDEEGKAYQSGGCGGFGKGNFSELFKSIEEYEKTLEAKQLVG
Protocol: (§1) HPPD produces homogentisic acid and CO2 from 4-hydroxyphenylpyruvate (4-HPP) and O2. The activity assay for HPPD is based on the analysis of homogentisic acid by reversed phase HPLC.
(§2) The assay mixture can contain 150 mM potassium phosphate buffer pH 7.0, 50 mM L-ascorbic acid, 100 μM Catalase (Sigma-Aldrich), 1 μM FeSO4 and 0.2 units of purified HPPD enzyme in a total volume of 505 μl. 1 unit is defined as the amount of enzyme that is required to produce 1 nmol of HGA per minute at 20° C.
(§3) After a preincubation of 30 min the reaction is started by adding 4-HPP to a final concentration of 0.05 mM. The reaction is allowed to proceed for 45 min at room temperature. The reaction is stopped by the addition of 50 μl of 4.5 M phosphoric acid. The sample is filtered using a […] pore size PVDF filtration device.
(§4) 5 μl of the cleared sample is analyzed on an UPLC HSS T3 column (particle size 1.8 μm, dimensions 2.1×50 mm; Waters) by isocratic elution using 90% 20 mM NaH2PO4 pH 2.2, 10% methanol (v/v).
(§5) HGA is detected electrochemically at 750 mV (mode: DC; polarity: positive) and quantified by integrating peak areas (Empower software; Waters).
(§6) Inhibitors are dissolved in DMSO (dimethylsulfoxide) to a concentration of 0.5 mM. From this stock solution serial five-fold dilutions are prepared in DMSO, which are used in the assay. The respective inhibitor solution accounts for 1% of the assay volume. […] Activities are normalized by setting the uninhibited enzyme activity to 100%. IC50 values are calculated using non-linear regression.
(§7) Using methods which are described in the above examples or well known in the art, purified, recombinant wildtype HPPD enzymes are characterized with respect to their kinetic properties and sensitivity towards HPPD inhibiting herbicides. Apparent michaelis constants (Km) and maximal reaction velocities (Vmax) are calculated by non-linear regression with the software GraphPad Prism 5 (GraphPad Software, La Jolla, USA) using a substrate inhibition model. […] Weighted means (by standard error) of Km and IC50 values are calculated from at least three independent experiments.
(§8) Field performance of the HPPD enzyme, which is used as a herbicide tolerance trait may depend not only on its lack of sensitivity towards HPPD inhibiting herbicides but also on its activity. To assess the potential performance of a herbicide tolerance trait a tolerance index (TI) is calculated using the following formula: […]
(§9) Easy comparison and ranking of each trait is enabled by normalizing tolerance indexes on Arabidopsis wild-type HPPD.

[2] = biological target: T2, Hordeum HPPD (SEQ ID NO:2) (Hordeum vulgare, UniProt O48604, A164G/R146V/R147D/R148G); experiment: HPPD activity assay (HGA by HPLC), wildtype enzyme; format: biochemical
T2 construct: subcloned into a modified pET24D (Novagen) expression vector resulting in N-terminally His-tagged expression constructs; His tag (N); made in house; host or cells: E. coli BL21 (DE3)
T2 sequence (O48604 whole entry R146V/R147D/R148G/A164G): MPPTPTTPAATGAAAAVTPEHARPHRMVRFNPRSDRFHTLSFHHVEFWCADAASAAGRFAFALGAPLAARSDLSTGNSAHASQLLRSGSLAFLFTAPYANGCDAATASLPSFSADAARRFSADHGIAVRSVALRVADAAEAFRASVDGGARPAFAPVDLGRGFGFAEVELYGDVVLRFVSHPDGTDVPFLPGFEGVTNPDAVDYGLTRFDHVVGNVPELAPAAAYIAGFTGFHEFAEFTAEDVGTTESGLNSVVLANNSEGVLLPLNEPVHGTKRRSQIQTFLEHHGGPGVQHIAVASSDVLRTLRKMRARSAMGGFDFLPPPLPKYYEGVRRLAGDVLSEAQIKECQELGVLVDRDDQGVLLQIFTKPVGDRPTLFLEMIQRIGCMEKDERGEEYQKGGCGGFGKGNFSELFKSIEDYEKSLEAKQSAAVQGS
Protocol: as §1, §2, §3, §4, §5, §6, §7, §8, §9

Kordia HPPD = experiment: HPPD activity assay, wildtype enzyme; format: biochemical; settings: Table 12, normalized to Arabidopsis HPPD
Protocol: as §1, §2, §3, §4, §5
(§10) Inhibitors are dissolved in DMSO (dimethylsulfoxide) to a concentration of 0.5 mM. From this stock solution serial five-fold dilutions are prepared in DMSO, which are used in the assay. The respective inhibitor solution accounts for 1% of the assay volume. Thus, final inhibitor concentrations range from […], respectively. Activities are normalized by setting the uninhibited enzyme activity to 100%. IC50 values are calculated using non-linear regression.
(§11) Using methods which are described in the above examples or well known in the art, purified, recombinant wildtype HPPD enzymes are characterized with respect to their kinetic properties and sensitivity towards HPPD inhibiting herbicides. Apparent michaelis constants (Km) and maximal reaction velocities (Vmax) are calculated by non-linear regression with the software GraphPad Prism 5 (GraphPad Software, La Jolla, USA) using a substrate inhibition model. Apparent kcat values are calculated from Vmax assuming 100% purity of the enzyme preparation. Weighted means (by standard error) of Km and IC50 values are calculated from at least three independent experiments. The Cheng-Prusoff equation for competitive inhibition (Cheng, Y. C.; Prusoff, W. H. Biochem Pharmacol 1973, 22, 3099-3108) is used to calculate dissociation constants (Ki).
as §8

Lolium HPPD = experiment: HPPD activity assay, wildtype enzyme; format: biochemical; settings: Table 12, normalized to Arabidopsis HPPD
Protocol: as §1, §2, §3, §4, §5, §10, §11, §8

[3] = tested on: Rhodococcus HPPD (Seq ID 44); experiment: HPPD activity assay, wildtype enzyme; format: biochemical; settings: Table 12, normalized to Arabidopsis HPPD; Rhodococcus (Seq ID 44)
Protocol: as §1, §2, §3, §4, §5, §10, §11, §8

[4] = tested on: Rhodococcus HPPD (Seq ID 46); experiment: HPPD activity assay, wildtype enzyme; format: biochemical; settings: Table 12, normalized to Arabidopsis HPPD; Rhodococcus (Seq ID 46)
Protocol: as §1, §2, §3, §4, §5, §10, §11, §8

Avena HPPD = experiment: HPPD activity assay, wildtype enzyme; format: biochemical, Avena sativa; settings: Table 12, normalized to Arabidopsis HPPD
Protocol: as §1, §2, §3, §4, §5
(§12) Inhibitors are dissolved in DMSO (dimethylsulfoxide) to a concentration of 0.5 mM. From this stock solution serial five-fold dilutions are prepared in DMSO, which are used in the assay. […] IC50 values are calculated using non-linear regression. […]

Chlamydomonas HPPD1a = experiment: HPPD activity assay, wildtype enzyme; format: biochemical, Chlamydomonas reinhardtii; settings: Table 12, normalized to Arabidopsis HPPD
Protocol: as §1, §2, §3, §4, §5, §12

Synechoccus HPPD = experiment: HPPD activity assay, wildtype enzyme; format: biochemical, Synechococcus; settings: Table 12, normalized to Arabidopsis HPPD
Protocol: as §1, §2, §3, §4, §5, §12

Cc1nonc1NC(=O)c1ccc(S(C)(=O)=O)c(S(C)(=O)=O)c1C [Inhibitor 1, 2-methyl-N-(4-methyl-1,2,5-oxadiazol-3-yl)-3,4-bis(methylsulfonyl)benzamide]
Ki [1]: 1.6 nM | Normalized tolerance index TI Inhibitor 1 ([1]; Table 12, normalized to Arabidopsis HPPD SEQ ID NO:53 (reference)): 1 | Normalized tolerance index TI Inhibitor 1 ([1]; Table 15, Arabidopsis HPPD Wildtype (reference)): 1 | TI (tolerance index) ([1]; not normalized, Table 11, Arabidopsis enzyme): 1.6E−3 | Ki [2]: 5.6 nM | Normalized tolerance index TI Inhibitor 1 ([2]; Table 12, normalized to Arabidopsis HPPD, Hordeum): 1.5 | Normalized tolerance index TI Inhibitor 1 ([2]; Table 16, Hordeum HPPD Wildtype (reference)): 1 | TI (tolerance index) ([2]; not normalized, Table 11, Hordeum enzyme): 2.5E−3 | Normalized tolerance index TI Inhibitor 1 (Kordia HPPD): 3.5 | Normalized tolerance index TI Inhibitor 1 (Lolium HPPD): 1.7 | Normalized tolerance index TI Inhibitor 1 [3]: 183.5 | Normalized tolerance index TI Inhibitor 1 [4]: 12.4 | Normalized tolerance index TI Inhibitor 1 (Avena HPPD): 1.3 | Normalized tolerance index TI Inhibitor 1 (Chlamydomonas HPPD1a): 1.7 | Normalized tolerance index TI Inhibitor 1 (Synechoccus HPPD): 69.9
